# Assay results as given in US20220265635A1, “TREATMENT OF NEUROLOGICAL DISEASE” (Aclipse One Inc., priority 2018, published 2022).
# How the values were obtained:
# [1] = test system: dopamine receptors; conditions: background description; cited from earlier work
# [2] = test system: TDP-43^Q331K mouse model; assay: Example 4 catwalk gait analysis; format: in vivo; conditions: TDP-43^Q331K mice
# Description: (§1) Following genotyping, transgenic females were block randomized into three different dosing groups: vehicle once daily, 2.5 mg/kg (6aS)-6-methyl-5,6,6a,7-tetrahydro-4H-dibenzo[de,g]quinoline-10,11-diol twice daily and 5 mg/kg (6aS)-6-methyl-5,6,6a,7-tetrahydro-4H-dibenzo[de,g]quinoline-10,11-diol once daily. The doses were selected based on results of previous internal studies. Animals were weighed daily before dosing and dosed subcutaneously at 10 ml/kg with a solution of 0.5 mg/ml (6aS)-6-methyl-5,6,6a,7-tetrahydro-4H-dibenzo[de,g]quinoline-10,11-diol for the 5 mg/kg dose and 0.25 mg/ml for the 2.5 mg/kg dose. Where animals were dosed twice a day, the doses were at least 6 hours apart and the dosing solution was freshly made for the second dose of the day.
# (§2) The study was designed with two main cohorts of mice. One cohort was dosed from 25 days of age until 6 months of age and mice had behavioral testing throughout the study and consisted of 14 mice per group. The other satellite cohort was dosed from 25 days of age until 3 months of age, with no behavioral testing and consisted of 6 mice per group for target engagement and histological assessment. Behavioral tests that were carried out during the experiment were: accelerated rotarod test, gait analysis, and electrophysiology.
# Gait analysis was carried out at 3 months and 6 months of age using the catwalk gait analysis system 7.1 (Noldus Information Technology B.V., Netherlands) and analyzed using Catwalk software 7.1. The software calculated many different gait parameters such as stride length, base of support (BOS) and swing time as well as step patterns and percentage of time spent on 2, 3 or 4 paws.
# On the day of the test mice were placed on the glass runway and allowed to run freely back and forth. About 6 straight, consistent runs were recorded by the camera for each mouse. The 3 best runs with the closest total run time were selected for each mouse for analysis. For these three runs, the paw prints were labelled in successive frames using the software, which then analyzed multiple gait parameters for each of the runs. Using Excel, the average of all three runs per mouse was calculated, followed by the average per group for each of the gait parameters.
# Gait analysis was performed using the catwalk system (Noldus) at both 3 and 6 months of age in 8 mice per group per timepoint. Traditionally in this model, the base of support increases with age, as shown in FIG. 9-13, represented the waddling or ‘swimming’ gait described in this strain.
# [3] = test system: Nrf2 and HSF1 target genes; assay: Example 4 target engagement qPCR of cortex tissue; format: in vivo, mouse; conditions: normalized to Gapdh
# Description: This in vivo pharmacology study was designed to test the efficacy of (6aS)-6-methyl-5,6,6a,7-tetrahydro-4H-dibenzo[de,g]quinoline-10,11-diol on the progression of motor and cognitive decline in the TDP-43^Q331K mouse model. In addition, tissue was collected at the end of the experiment for target engagement (gene expression) analysis of Nrf2 and HSF1 target genes.
# as §1, §2
# Tissue was collected at 24 hours after the final morning dose. All animals were overdosed with an intraperitoneal injection of pentibarital (JML, M042) at the time of tissue collection (2.5 ml/kg). In the 6 month cohort (n=14), 7 animals per group were perfused to fix tissue for histology. For these animals, once animals had lost pedal reflex, the chest cavity was opened and 10 ml of PBS was perfused via the heart, followed by 10 ml of 4% PFA. Brain and spinal cord were extracted and stored in 4% PFA overnight before being changed to PBS. The lumbar section of the spinal cord was dissected and embedded. For the remaining 7 animals per group, once the animals had lost pedal reflex, blood was extracted via a cardiac puncture technique. The blood was collected and stored in 1 ml of RNALater (ThermoFisher). Spinal cords were removed and the upper section of spinal cord was snap frozen in liquid nitrogen for protein analysis, while the lower section was stored in RNALater and stored at −20° C. Cortex was removed and dissected into four parts, the front left segment was stored in RNALater, while the three other sections were snap frozen in liquid nitrogen.
# For the 3 month cohort, tissue was collected in a similar way to the snap frozen tissue for 6 month cohort, however where tissue was stored in RNALater for the 6 month cohort, it was processed for RNA extraction immediately in the 3 month cohort.
# RNA was extracted from lower spinal cord and cortex using the RNeasy lipid tissue mini kit (Qiagen, 74804) following the manufactures protocol. Briefly tissue was homogenized in a small volume (150 μl) of QIAzol using a hand-held homogenizer in a fume hood. Once homogenized, the total volume of QIAzol was increased to 1 ml. Samples were incubated at room temperature for 5 minutes after which 200 μl of chloroform (Honeywell) was added and samples were shaken vigorously for 15 seconds. Mixed samples were then incubated at room temperature for 3 minutes then centrifuged at 12,000g for 15 minutes at 4° C. in a bench top microcentrifuge.
# The upper aqueous phase of the sample was transferred to a fresh labelled tube and 1 volume of 70% ethanol was added. Samples were vortexed and 700 μl of sample was transferred to RNeasy mini spin columns attached to 2 ml collection tubes. […]
# [4] = test system: HSF1 regulated genes; assay: Example 2 in vivo pharmacodynamic study via subcutaneous dosing, cortex: expression of genes upregulated by HSF1 activation; parameters: species or system mouse; conditions: for Dlg4 gene induction / Dnajba gene induction / Hspa1a gene induction / Hspa8 gene induction / Syn1 gene induction: wildtype mouse cortex, 5 mg/kg s.c. once daily 7 days, compared to Gapdh
# Description: Wildtype mice (3 per group) were dosed subcutaneously at 0, 0.5, 1.5, 5 and 10 mg/kg (6aS)-6-methyl-5,6,6a,7-tetrahydro-4H-dibenzo[de,g]quinoline-10,11-diol hydrochloride for 7 days once daily. One animal in the 10 mg/kg dosing group was actually dosed 15 mg/kg on Day 1. To prepare the dosing solutions, (6aS)-6-methyl-5,6,6a,7-tetrahydro-4H-dibenzo[de,g]quinoline-10,11-diol was pre-weighed into bijous and stored in foil.
# [5] = Example 4 mouse weights in TDP-43^Q331K mouse model; format: in vivo; conditions: TDP-43^Q331K mice
# Description: as §1, §2
# Animals were weighed daily before dosing to calculate dose volume. […]
# [6] = 3 months, 2.5 mg/kg dosing group
smiles,measurement,setting,value
"CN1CCc2cccc3c2[C@@H]1Cc1ccc(O)c(O)c1-3 [(6aS)-6-methyl-5,6,6a,7-tetrahydro-4H-dibenzo[de,g]quinoline-10,11-diol]",activity on dopamine receptors (in words),[1],weak dopamine antagonist
same,"gait parameters (time spent on diagonal paws, on three or four paws) from 3 to 6 months",[2]; 2.5 mg/kg dosing group,relatively stable
same,"change in percentage of time spent on 3 paws between 3 months and 6 months of age, compared to vehicle",[2]; 2.5 mg/kg twice daily,significant decrease
same,change in percentage of time spent on diagonal paws between 3 months and 6 months of age,"[2]; 2.5 mg/kg twice daily, significant difference to vehicle, which has a decrease",slight increase
same,"gait parameters (time spent on diagonal paws, on three or four paws) from 3 to 6 months",[2]; 5 mg/kg dosing group,relatively stable
same,effect on swimming gait (base of support increasing with age),[2]; 3 and 6 months of age,did not limit this swimming gait
same,GSR relative mRNA level compared to vehicle,[3]; [6],upregulation
same,Nqo1 relative mRNA level compared to vehicle,[3]; [6],upregulation
same,Osgin1 relative mRNA level compared to vehicle,[3]; [6],upregulation
same,GSR relative mRNA level compared to vehicle,"[3]; 3 months, 5 mg/kg dosing group",significant upregulation
same,Hspa1a relative mRNA level compared to vehicle,"[3]; 3 months, 5 mg/kg dosing group",significant upregulation
same,Nqo1 relative mRNA level compared to vehicle,"[3]; 3 months, 5 mg/kg dosing group",significant upregulation
same,Sqstm1 relative mRNA level compared to vehicle,"[3]; 3 months, 5 mg/kg dosing group",significant upregulation
same,Hspa1a relative mRNA level compared to vehicle,"[3]; 6 months, 2.5 mg/kg twice daily",significant upregulation
same,Hspa1a relative mRNA level compared to vehicle,"[3]; 6 months, 5 mg/kg daily",significant upregulation
same,dose at which HSF1 regulated genes are activated,"[4]; mice, s.c. once daily 7 days, Example 2",≥ 0.5 mg/kg
same,Dlg4 gene induction,[4]; 6 hours post final dose,1.46 fold
same,Dnajba gene induction,[4]; 6 hours post final dose,1.31 fold
same,Hspa1a gene induction,[4]; 6 hours post final dose,1.84 fold
same,Hspa8 gene induction,[4]; 6 hours post final dose,1.56 fold
same,Syn1 gene induction,[4]; 6 hours post final dose,1.68 fold
same,Dlg4 gene induction,[4]; 24 hours post final dose,0.90 fold
same,Dnajba gene induction,[4]; 24 hours post final dose,1.17 fold
same,Hspa1a gene induction,[4]; 24 hours post final dose,2.25 fold
same,Hspa8 gene induction,[4]; 24 hours post final dose,2.62 fold
same,Syn1 gene induction,[4]; 24 hours post final dose,1.47 fold
same,mouse weight compared to the vehicle dosing group,"[5]; 3-month cohort, either dosing group (2.5 mg/kg twice daily, 5 mg/kg once daily s.c.)",no significant difference
same,mouse weight compared to the vehicle dosing group,"[5]; 6-month cohort, 2.5 mg/kg dosing group, from 121 days of age until the end of the study",significant decrease
